Assay results published in patent publication US7435837B2, “Dihydrobenzofuranyl alkanamine derivatives and methods for using same” (Wyeth, priority 2003, dated 2008).

Tests used:
[1] = target: T1, human 5-hydroxytryptamine-2C (h5-HT2C) receptor (Homo sapiens, UniProt P28335); test: [125I]DOI binding to membranes of CHO cells expressing the human 5-HT2C receptor; conditions: [125I]DOI radioligand, CHO cell membranes, room temperature 60 min; read-out: 5-HT2C Affinity Ki
T1 construct: expressed in transfected cells; host or cells: CHO (Chinese Hamster Ovary) cells; membranes
T1 sequence (P28335 33-458): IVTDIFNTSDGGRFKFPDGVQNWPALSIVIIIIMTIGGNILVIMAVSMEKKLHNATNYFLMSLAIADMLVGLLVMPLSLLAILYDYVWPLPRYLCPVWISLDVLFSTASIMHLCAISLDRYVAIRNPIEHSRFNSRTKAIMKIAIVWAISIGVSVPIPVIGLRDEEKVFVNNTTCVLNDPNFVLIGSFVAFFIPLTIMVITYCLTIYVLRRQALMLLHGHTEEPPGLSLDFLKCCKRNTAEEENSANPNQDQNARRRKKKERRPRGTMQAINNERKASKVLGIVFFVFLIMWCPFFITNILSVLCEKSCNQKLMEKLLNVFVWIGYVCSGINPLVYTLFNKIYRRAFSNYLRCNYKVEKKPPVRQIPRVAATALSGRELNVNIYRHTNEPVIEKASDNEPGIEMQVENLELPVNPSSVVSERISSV

human 5-HT2C receptor = target: T2, human 5-HT2C receptor (Homo sapiens, UniProt P28335); test: 5-HT2C receptor-stimulated calcium mobilization (FLIPR) in CHO cells; type: cell-based; conditions: for Emax: CHO, read-out: 5-HT2C Function Emax (%); for Emax / 5-HT2C Function Emax (%): percentage of the response observed with a maximally effective concentration of 5-HT; for EC50: calcium mobilization, CHO cells stably expressing human 5-HT2C, read-out: 5-HT2C Function EC50;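 on all read-outs here: Fluo-3-AM fluorescence read on FLIPR every 1 s, agonist added after 10 baseline reads, response taken as peak minus lowest raw fluorescence count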
T2 sequence (P28335 33-458): T1 sequence (P28335 33-458)

Row | Structure (SMILES) | Ki [1] [nM] | Emax (human 5-HT2C receptor) [%] | EC50 (human 5-HT2C receptor) [nM] | 5-HT2C Function Emax (%) (human 5-HT2C receptor)
1 | Cc1ccccc1-c1cc(C2CCCC2)cc2c1OC(CN)C2 (racemic) [Example 309, (±)-{[5-cyclopentyl-7-(2-methylphenyl)-2,3-dihydro-1-benzofuran-2-yl]methyl}amine] | 8 | 90 | 107 | 
2 | CNCC1Cc2cc(OC)cc(-c3cccc(F)c3F)c2O1 (racemic) [Example 494, (±)-{[7-(2,3-difluorophenyl)-5-methoxy-2,3-dihydro-1-benzofuran-2-yl]methyl}methylamine] | 35 | 60 | 475 | 
3 | NCC1Cc2cc(C(F)(F)F)cc(-c3ccoc3)c2O1 (racemic) [Example 341, (±)-{[7-(3-furyl)-5-(trifluoromethyl)-2,3-dihydro-1-benzofuran-2-yl]methyl}amine] | 36 | 90 | 231 | 
4 | CNCC1Cc2cccc(-c3cccc(C)c3)c2O1 (racemic) [Example 414, (±)-[(N-methyl-1-[7-(3-methylphenyl)-2,3-dihydro-1-benzofuran-2-yl]methanamine] | 3.4 | 60 | 781 | 
5 | NCC1Cc2cccc(-c3c(F)cccc3F)c2O1 (racemic) [Example 139, (±)-1-[7-(2,6-difluorophenyl)-2,3-dihydro-1-benzofuran-2-yl]methanamine] | 2.5 | 90 | 6 | 
6 | CNCC1Cc2cc(F)cc(-c3ccccc3C)c2O1 (single isomer, unassigned; (+)) [Example 442, (+)-{[5-fluoro-7-(2-methylphenyl)-2,3-dihydro-1-benzofuran-2-yl]methyl}methylamine] | 0.2 |  | 6 | 90
7 | CNCC1Cc2ccc(F)c(-c3ccccc3Cl)c2O1 (racemic) [Example 402, (±)-{[6-fluoro-7-(2-chlorophenyl)-2,3-dihydro-1-benzofuran-2-yl]methyl}methylamine] | 0.24 | 90 | 0.1 | 
8 | Cc1ccc(-c2cccc3c2OC(CN)C3)cc1 (single isomer, unassigned; (-)) [Example 72, (−)-1-[7-(4-methylphenyl)-2,3-dihydro-1-benzofuran-2-yl]methanamine] | 33 |  | 511 | 85
9 | CNCC1Cc2cc(OC)cc(-c3c(C)cccc3C)c2O1 (single isomer, unassigned; (-)) [Example 560, (−)-{[7-(2,6-dimethylphenyl)-5-methoxy-2,3-dihydro-1-benzofuran-2-yl]methyl}methylamine] | 0.35 | 100 | 2 | 
10 | Cc1ccc(-c2cccc3c2OC(CN)C3)cc1 (racemic) [Example 70, (±)-1-[7-(4-methylphenyl)-2,3-dihydro-1-benzofuran-2-yl]methanamine] | 2 | 100 | 22 | 
11 | COc1ccc(-c2cccc3c2OC(CN)C3)cc1 (racemic) [Example 79, (±)-1-[7-(4-methoxyphenyl)-2,3-dihydro-1-benzofuran-2-yl]methanamine] | 2 | 95 | 24 | 
12 | COc1ccc(-c2cc(F)cc3c2OC(CN)C3)cc1 (racemic) [Example 202, (±)-{[5-fluoro-7-(4-methoxyphenyl)-2,3-dihydro-1-benzofuran-2-yl]methyl}amine] | 11 | 80 | 105 | 
13 | CNCC1Cc2cccc(-c3ccccc3C)c2O1 (racemic) [Example 406, (±)-[(N-methyl-1-[7-(2-methylphenyl)-2,3-dihydro-1-benzofuran-2-yl]methanamine] | 0.51 | 100 | 9 | 
14 | NCC1Cc2cccc(-c3ccsc3)c2O1 (racemic) [Example 44, (±)-1-(7-thien-3-yl-2,3-dihydro-1-benzofuran-2-yl)methanamine] | 3 | 100 | 7 | 
15 | NCC1Cc2cc(C(F)(F)F)cc(-c3cccnc3)c2O1 (racemic) [Example 343, (±)-{[7-pyridin-3-yl-5-(trifluoromethyl)-2,3-dihydro-1-benzofuran-2-yl]methyl}amine] | 12 | 90 | 49 | 

More lines, now with the values ahead:

Row | Ki [1] [nM] | Emax (human 5-HT2C receptor) [%] | EC50 (human 5-HT2C receptor) [nM] | 5-HT2C Function Emax (%) (human 5-HT2C receptor) | Structure (SMILES)
16 | 37 | 80 | 111 |  | NCC1Cc2cc(C(F)(F)F)cc(-c3ccc(F)cc3F)c2O1 (racemic) [Example 332, (±)-{[7-(2,4-difluorophenyl)-5-(trifluoromethyl)-2,3-dihydro-1-benzofuran-2-yl]methyl}amine]
17 | 19 | 70 | 672 |  | NCC1Cc2cc(F)cc(-c3cccc(Cl)c3Cl)c2O1 (racemic) [Example 211, (±)-{[7-(2,3-dichlorophenyl)-5-fluoro-2,3-dihydro-1-benzofuran-2-yl]methyl}amine]
18 | 0.21 | 100 | 3 |  | COc1cc2c(c(-c3cc(Cl)ccc3Cl)c1)OC(CN)C2 (racemic) [Example 367, (±)-{[7-(2,5-dichlorophenyl)-5-methoxy-2,3-dihydro-1-benzofuran-2-yl]methyl}amine]
19 | 8.6 |  | 251 | 90 | NCC1Cc2cc(Cl)cc(-c3ccc(Cl)cc3Cl)c2O1 (single isomer, unassigned; (+)) [Example 253, (+)-{[5-chloro-7-(2,4-dichlorophenyl)-2,3-dihydro-1-benzofuran-2-yl]methyl}amine]
20 | 18 | 80 | 120 |  | Cc1ccc(C)c(-c2cc(F)cc3c2OC(CN)C3)c1 (racemic) [Example 222, (±)-{[7-(2,5-dimethylphenyl)-5-fluoro-2,3-dihydro-1-benzofuran-2-yl]methyl}amine]
21 | 1.3 | 90 | 30 |  | NCC1Cc2cc(F)cc(-c3c(F)cccc3F)c2O1 (racemic) [Example 226, (±)-{[7-(2,6-difluorophenyl)-5-fluoro-2,3-dihydro-1-benzofuran-2-yl]methyl}amine]
22 | 7 | 90 | 79 |  | COc1ccc(-c2cc(F)cc3c2OC(CN)C3)c(OC)c1 (racemic) [Example 219, (±)-{[7-(2,4-dimethoxyphenyl)-5-fluoro-2,3-dihydro-1-benzofuran-2-yl]methyl}amine]
23 | 18 | 90 | 42 |  | Cc1ccccc1-c1cc(C(F)(F)F)cc2c1OC(CN)C2 (racemic) [Example 314, (±)-{[5-(trifluoromethyl)-7-(2-methylphenyl)-2,3-dihydro-1-benzofuran-2-yl]methyl}amine]
24 | 0.27 | 100 | 0.8 |  | CNCC1Cc2cc(F)cc(-c3cc(Cl)ccc3Cl)c2O1 (single isomer, unassigned; (+)) [Example 450, (+)-{[5-fluoro-7-(2,5-dichlorophenyl)-2,3-dihydro-1-benzofuran-2-yl]methyl}methylamine]
25 | 1 | 100 | 6 |  | CNCC1Cc2cc(C)cc(-c3c(Cl)cccc3Cl)c2O1 (racemic) [Example 490, (±)-{[7-(2,6-dichlorophenyl)-5-methyl-2,3-dihydro-1-benzofuran-2-yl]methyl}methylamine]
